Molecules are shown by their SMILES.

A short description of data set [1]: Treatment of patient with chronic hypertension. It counts as in vivo. The following applies: intravenous, blood concentration of 10 nanomolar. The source says: A person being treated with sodium iodide for hyperthyroidism has chronic hypertension (BP of 165/90). The patient is given 4 intravenously to maintain a blood concentration of 10 nanomolar. Blood pressure reduces to 140/85.
Treatment of patient with chronic hypertension with 6 The patient who has chronic hypertension (BP of 165/90) is given 6 intravenously to maintain a blood concentration of 10 nanomolar. Blood pressure reduces to 140/85.

A short description of data set [2]: Stability of the Diels-Alder adduct and its hydrogenated derivative (observation). The following applies: white solid precipitated at 0° C., then warmed. It counts as physicochemical. As for the experimental part:
At 0° C., a white solid, presumed to be 2, precipitated from solution. […] To confirm the identity of 2, hydrogenation produced stable compound 3 as described below.

Turning to `N#CC1(N2OC3CC2C(Br)C3Br)CCCCC1` (stereo not shown) [Compound 4, N-(1-cyanocyclohexyl)bicyclo[2.2.1]4,5-dibromo-3,6-dihydro-1,2-oxazine], the Blood pressure in data set [1] (person treated with sodium iodide, chronic hypertension (BP of 165/90)) is 140/85.
`N#CC1(N2OC3CCC2C3)CCCCC1` (stereo not shown) [Compound 3, N-(−1-cyanocyclohexyl)bicyclo[2.2.1]3,4,5,6-tetrahydro-1,2-oxazine]: the “Stability (retro Diels Alder reaction)” value in data set [2] is reported as “stable”.
Turning to `N#CC1(N2OC3C=CC2C3)CCCCC1` (stereo not shown) [Compound 2], in data set [2], the “Stability (retro Diels Alder reaction)” value is given as “On warming, the solid turned blue, suggesting retro Diels Alder reaction”.
As to `N#CC1(N2OC3CC2C(S)C3O)CCCCC1` (stereo not shown) [Compound 6, N-(1-Cyanocyclohexyl)bicyclo[2.2.1]4-thio-5-hydroxy-3,6-dihydro-1,2-oxazine], in data set [1] (patient with chronic hypertension (BP of 165/90)), the Blood pressure is listed as 140/85.
